Where “and” joins values, the source holds several entries; their conditions need not be identical. Equal entries are not always repeated. Where a SMILES comes first, the peptide text is derived from it.
Tested on: lipase
Experiment: Lipase/lipolysis assay (EnzChek Lipase Substrate, quenched BODIPY-fatty acid conjugate) on stored human milk; further: test concentration or dose not given here
Details: not given

SMILES	Lipase (RFU)
NCCCC[C@H](N)C(=O)O [L-Lysine]	909.5913 RFU and 1084.77 RFU and 881.5409 RFU and 1310.906 RFU
O=C(O)C[C@H](O)C(=O)O [L-Malic Acid]	1144.049 RFU
CS(=O)(=O)CC[C@H](N)C(=O)O [L-Methionine Sulfone]	897.1863 RFU
CCCCCCCC(=O)O[C@H](CC(=O)[O-])C[N+](C)(C)C [L-Octanoylcarnitine]	1071.191 RFU
O=C(CO)[C@@H](O)[C@H](O)[C@@H](O)CO [L-Sorbose]	1197.031 RFU
N[C@@H](Cc1c[nH]c2ccccc12)C(=O)O [L-Tryptophan]	1074.461 RFU and 1239.076 RFU
CC(O)C(=O)[O-].CC(O)C(=O)[O-].[Ca+2] (centres unmarked) [Lactate (calcium)]	763.893 RFU
OC[C@H]1O[C@@H](O[C@H]2[C@H](O)[C@@H](O)[C@@H](O)O[C@@H]2CO)[C@H](O)[C@@H](O)[C@H]1O [Lactose]	912.5223 RFU
C=C1C(=O)O[C@@H]2[C@H]3C(CO)=CC(=O)C3=C(C)C[C@H](OC(=O)Cc3ccc(O)cc3)[C@@H]12 [Lactupicrin]	995.7975 RFU
CC(C)CCC[C@@H](C)[C@H]1CC[C@H]2C3=CC[C@H]4C[C@@H](O)CC[C@]4(C)[C@H]3CC[C@]12C [Lathosterol]	1017.106 RFU
Oc1cc(O)c2c(c1)OC(c1ccc(O)c(O)c1)C(O)C2O (centres unmarked) [Leucocyanidin]	957.6226 RFU
C=CC(C)(CCC=C(C)C)OC(C)=O (centres unmarked) [Linalyl acetate]	753.0162 RFU and 717.2876 RFU
COc1ccc(-c2cc(=O)c3c(O)cc(O[C@@H]4O[C@H](CO[C@@H]5O[C@@H](C)[C@H](O)[C@@H](O)[C@H]5O)[C@@H](O)[C@H](O)[C@H]4O)cc3o2)cc1 [Linarin]	989.9197 RFU
CCCCC/C=C/C/C=C/CCCCCCCC(=O)O [Linolelaidic acid]	831.2921 RFU
O=C(O)CCCCC1CCSS1 (centres unmarked) [Lipoic acid]	1146.052 RFU
CC(C)=CCc1c(O)cc(O)c2c(=O)c(-c3ccc(O)cc3)coc12 [Lupiwighteone]	1206.447 RFU
O=C(O)[C@H]1O[C@@H](Oc2cc(O)c3c(=O)cc(-c4ccc(O)c(O)c4)oc3c2)[C@H](O)[C@@H](O)[C@@H]1O [Luteolin 7-O-glucuronide]	995.7867 RFU
Oc1cc(O)c2ccc(-c3ccc(O)c(O)c3)[o+]c2c1.[Cl-] [Luteolinidin (chloride)]	933.7809 RFU
CCCCCCCCCCCCCC(=O)OC[C@@H](O)COP(=O)([O-])OCC[N+](C)(C)C [LysoPC(14:0/0:0)]	1043.126 RFU
COc1cc(C[C@H](C)[C@H](C)Cc2ccc3c(c2)OCO3)ccc1O [Macelignan]	621.9317 RFU
C=CCc1ccc(O)c(-c2cc(CC=C)ccc2O)c1 [Magnolol]	941.9616 RFU

SMILES	Lipase (RFU)
OC[C@@H](O)[C@@H](O[C@H]1O[C@H](CO)[C@@H](O)[C@H](O)[C@H]1O)[C@H](O)[C@@H](O)CO [Maltitol]	943.5543 RFU
C=C[C@](C)(O)CC[C@H]1C(=C)CC[C@H]2C(C)(C)CCC[C@]12C [Manool]	923.6944 RFU
CC1(C)CC[C@]2(C(=O)O)CC[C@]3(C)C(=CC[C@@H]4[C@@]5(C)C[C@@H](O)[C@H](O)C(C)(C)[C@@H]5CC[C@]43C)[C@@H]2C1 [Maslinic acid]	1120.923 RFU
CC1O[C@@H](OC[C@H]2O[C@@H](Oc3c(-c4ccc(O)cc4)oc4cc(O)cc(O)c4c3=O)C(O[C@@H]3O[C@H](C)[C@H](O)C(O)C3O)C(O)[C@H]2O)C(O)[C@@H](O)[C@H]1O (some centres unmarked) [Mauritianin]	860.4015 RFU
CNC(C)(C)C(=O)O [MeAIB]	1061.964 RFU
CC1(C)CC[C@]2(C(=O)O)CC[C@]3(C)C(=CC[C@@H]4[C@@]5(C)C[C@H](O)[C@H](O)[C@@](C)(C(=O)O)[C@@H]5CC[C@]43C)[C@@H]2C1 [Medicagenic acid]	975.8957 RFU
O=C(O)[C@H](O)[C@@H](O)[C@H](O)[C@H](O)CO[C@H]1O[C@H](CO)[C@H](O)[C@H](O)[C@H]1O [Melibionic Acid]	917.5297 RFU
O=c1cc(-c2ccc(O)cc2)oc2cc(O)c([C@@H]3O[C@H](CO)[C@@H](O)[C@H](O)[C@H]3O[C@@H]3O[C@H](CO)[C@@H](O)[C@H](O)[C@H]3O)c(O)c12 [Meloside A]	811.3753 RFU
CC(C)=CCC/C(C)=C/CC/C(C)=C/CC/C(C)=C/CC1=C(C)C(=O)c2ccccc2C1=O [Menaquinone-4]	987.2266 RFU
COC(=O)c1ccc(OC)cc1 [Methyl anisate]	1101.708 RFU and 911.2014 RFU
COC(=O)c1cccnc1 [Methyl nicotinate]	1069.07 RFU and 773.2703 RFU
COC(=O)[C@]12CCC(C)(C)C[C@H]1C1=CC[C@@H]3[C@@]4(C)CCC(=O)C(C)(C)[C@@H]4CC[C@@]3(C)[C@]1(C)CC2 [Methyl oleanonate]	912.7431 RFU
C/C1=C2/[N-][C@H]([C@H](CC(N)=O)[C@@]2(C)CCC(=O)NC[C@H](C)OP(=O)([O-])O[C@H]2[C@@H](O)[C@@H](n3cnc4cc(C)c(C)cc43)O[C@@H]2CO)[C@]2(C)N=C(/C(C)=C3N=C(/C=C4N=C1[C@@H](CCC(N)=O)C\4(C)C)[C@@H](CCC(N)=O)[C@]\3(C)CC(N)=O)[C@@H](CCC(N)=O)[C@]2(C)CC(N)=O.[CH3-].[Co+3] [Methylcobalamin]	1187.639 RFU
CC(C(=O)O)C(=O)O [Methylmalonic acid]	883.2913 RFU
COC1=CC(=O)O[C@@H](/C=C/c2ccc3c(c2)OCO3)C1 [Methylsticin]	1261.171 RFU
O=C(O)C1=CO[C@@H](O[C@@H]2O[C@H](CO)[C@@H](O)[C@H](O)[C@H]2O)[C@H]2[C@@H]1C=C[C@]2(O)CO [Monotropein]	976.474 RFU
CC(C)(O)C1Cc2cc3cc(-c4cc(O)cc(O)c4)oc3cc2O1 (centres unmarked) [Moracin O]	899.9132 RFU
CC1(C)Oc2cc3oc(-c4cc(O)cc(O)c4)cc3cc2C[C@H]1O [Moracin P]	751.9577 RFU
NC(=O)[C@@H]1CCCN1C(=O)[C@H](Cc1ccccc1)NC(=O)[C@@H]1CCCN1C(=O)[C@@H](N)Cc1ccc(O)cc1 [Morphiceptin] (H-YPFP-NH2)	1251.045 RFU
C[C@@H]1CCCCCCCCCCCCC(=O)C1 [Muscone]	696.5228 RFU
CC(=O)c1c(C)c([N+](=O)[O-])c(C(C)(C)C)c([N+](=O)[O-])c1C [Musk ketone]	777.5201 RFU

SMILES	Lipase (RFU)
c1cncc(C2=NCCC2)c1 [Myosmine]	909.737 RFU
C=CCc1cc(OC)c2c(c1)OCO2 [Myristicin]	960.4671 RFU
CC(=O)NCCCCNCCCN.Cl.Cl [N8-Acetylspermidine dihydrochloride]	781.9265 RFU
CC(=O)N[C@H]1[C@H](O[C@H]2[C@H](O)[C@@H](NC(C)=O)C(O)O[C@@H]2CO)O[C@H](CO)[C@@H](O[C@@H]2O[C@H](CO)[C@@H](O)[C@H](O)[C@H]2NC(C)=O)[C@@H]1O (some centres unmarked) [N,N′,N″-Triacetylchitotriose]	1143.03 RFU
CC(=O)N[C@@H](CO)[C@@H](O)[C@H](O)[C@H](O)CO [N-Acetyl-D-Glucosaminitol]	1055.486 RFU
COc1cc(/C=C/C(=O)NCC(O)c2ccc(O)cc2)ccc1O (centres unmarked) [N-Feruloyloctopamine]	893.4142 RFU
COc1cc(/C=C/C(=O)NCCc2c[nH]c3ccc(O)cc23)ccc1O [N-Feruloylserotonin]	1060.876 RFU
O=C(/C=C/c1ccc(O)cc1)NCCc1ccc(O)cc1 [N-p-trans-Coumaroyltyramine]	1082.731 RFU
NC(=O)c1ccc[n+]([C@@H]2O[C@H](COP(=O)([O-])OP(=O)(O)OC[C@H]3O[C@@H](n4cnc5c(N)ncnc54)[C@H](O)[C@@H]3O)[C@@H](O)[C@H]2O)c1 [NAD+]	662.6014 RFU
NC(=O)C1=CN([C@@H]2O[C@H](COP(=O)([O-])OP(=O)([O-])OC[C@H]3O[C@@H](n4cnc5c(N)ncnc54)[C@H](O)[C@@H]3O)[C@@H](O)[C@H]2O)C=CC1.[Na+].[Na+] [NADH (disodium salt)]	996.9696 RFU
NC(=O)c1ccc[n+]([C@@H]2O[C@H](COP(=O)([O-])OP(=O)(O)OC[C@H]3O[C@@H](n4cnc5c(N)ncnc54)[C@H](OP(=O)([O-])[O-])[C@@H]3O)[C@@H](O)[C@H]2O)c1.[Na+].[Na+] [NADP (disodium salt)]	762.8961 RFU
NC(=O)c1ccc[n+]([C@@H]2O[C@H](COP(=O)([O-])OP(=O)(O)OC[C@H]3O[C@@H](n4cnc5c(N)ncnc54)[C@H](OP(=O)(O)O)[C@@H]3O)[C@@H](O)[C@H]2O)c1 [NADP]	1113.421 RFU
CCN(CC)CCOC(=O)C(Cc1cccc2ccccc12)CC1CCCO1.O=C(O)C(=O)O (centres unmarked) [Naftidrofuryl (oxalate)]	1022.029 RFU
O=C(/C=C/c1ccc(O)c(O)c1)O[C@@H]1C[C@@](O)(C(=O)O)C[C@@H](O)[C@@H]1O [Neochlorogenic acid]	1024.869 RFU
COc1ccc(-c2cc(=O)c3c(O)cc(O[C@@H]4O[C@H](CO)[C@@H](O)[C@H](O)[C@H]4O[C@@H]4O[C@@H](C)[C@H](O)[C@@H](O)[C@H]4O)cc3o2)cc1O [Neodiosmin]	928.3945 RFU
C[C@@H]1O[C@@H](O[C@H]2[C@H](Oc3cc(O)c4c(c3)O[C@H](c3ccc(O)c(O)c3)CC4=O)O[C@H](CO)[C@@H](O)[C@@H]2O)[C@H](O)[C@H](O)[C@H]1O [Neoeriocitrin]	1015.344 RFU
COc1c(CC=C(C)C)c(O)cc2oc(=O)c3c4ccc(O)cc4oc3c12 [Neoglycyrol]	923.0229 RFU
COc1ccc([C@@H]2CC(=O)c3c(O)cc(O[C@@H]4O[C@H](CO)[C@@H](O)[C@H](O)[C@H]4O[C@@H]4O[C@@H](C)[C@H](O)[C@@H](O)[C@H]4O)cc3O2)cc1O [Neohesperidin]	774.0784 RFU
O=C(/C=C/c1ccc(O)cc1)c1ccc(O[C@@H]2O[C@H](CO)[C@@H](O)[C@H](O)[C@H]2O)cc1O [Neoisoliquiritin]	789.3461 RFU

Same assay, conditions: (hydrochloride)

SMILES	Lipase (RFU)
Cl.NCCCC[C@H](N)C(=O)O [L-Lysine hydrochloride]	1184.747 RFU and 890.5892 RFU

From patent publication US12507703B2, “Methods, devices and compositions for preserving human milk” (The Trustees of Princeton University, priority 2023, dated 2025)
